From patent US9522884B2, “Compositions and methods for the treatment of metabolic disorders” (CELLIXBIO PRIVATE LIMITED, priority 2012, dated 2016)

How the values were obtained:
[1] = system: normal controls (NC) rats; test: Normal control rats treated 8 weeks via drinking water (same study); assay type: in vivo, Male Wistar rats; details: 1 g·L-1 in drinking water, n = 12, mean ± SEM
Experimental: (§1) Diabetes was induced in rats by a single tail vein injection with 55 mg·kg-1 steptozotocin (STZ). After induction of hyperglycaemia, animals were treated for 8 weeks with pyridoxamine (1 g·L-1 in drinking water) and Formula-I (1-2) (1 g·L-1 in drinking water) were compared with the age-matched untreated diabetic controls. Pulse wave reflection along the vasculature was derived using the impulse response function of the filtered aortic input impedance spectra.
(§2) Male Wistar rats at 2 months were randomly divided into six groups (n=12 in each group) as follows: (i) normal controls (NC); (ii) STZ-diabetic rats (DM); (iii) NC treated with PM (NC+PM); (iv) NC treated with Formula-I (1-2) (NC+Formula-I (1-2)); (v) DM treated with PM (DM+PM); and (vi) DM treated with Formula-I (1-2) (DM+Formula-I (1-2)). Diabetes was induced in animals by a single tail vein injection with 55 mg·kg-1 STZ in 0.1 M citrate buffer (pH 4.5). After confirmation of the development of hyperglycaemia (2 days later) by blood glucose determination using a sure step Test Strip, rats were randomly allocated into a vehicle-treated diabetic group, and a treatment group receiving PM in drinking water of 1 g·L-1 and Formula-I (1-2) in drinking water of 1 g·L-1. Animals were studied 8 weeks after exposure to PM to determine its effects on the pulsatile nature of blood flows in the diabetic arteries.
(§3) Effects of Diabetes and Pyridoxamine and Formula-I (1-2) on Blood Glucose Level, Body Weight, Left Ventricular Weight and Aortic Pressure Profile in Male Wistar Rats: […]

STZ-diabetic rats = test: Prevention of arterial stiffening in diabetes: STZ-diabetic rats treated 8 weeks via drinking water; assay type: in vivo, Male Wistar rats; details: STZ-diabetic rats (DM), 1 g·L-1 in drinking water, n = 12, mean ± SEM
Experimental: as §1, §2, §3

Row | SMILES | BW (body weight) [1] [g] | Glucose [1] [mg/mL] | LVW (left ventricular weight) [1] [g] | LVW/BW [1] [mg/g] | Pd (diastolic aortic pressure) [1] [mmHg] | Pm (mean aortic pressure) [1] [mmHg] | Ps (systolic aortic pressure) [1] [mmHg] | BW (body weight) (STZ-diabetic rats) [g] | Glucose (STZ-diabetic rats) [mg/mL] | LVW (left ventricular weight) (STZ-diabetic rats) [g] | LVW/BW (STZ-diabetic rats) [mg/g] | Pd (diastolic aortic pressure) (STZ-diabetic rats) [mmHg] | Pm (mean aortic pressure) (STZ-diabetic rats) [mmHg] | Ps (systolic aortic pressure) (STZ-diabetic rats) [mmHg]
1 | CC/C=C\C/C=C\C/C=C\C/C=C\C/C=C\CCCC(=O)OC(C)OC(=O)NCc1c(CO)cnc(C)c1O (stereo not shown) [Formula 1(1-2)] | 418.0 ± 13.8 | 1.051 ± 0.014 | 0.789 ± 0.016 | 1.69 ± 0.04 | 76.7 ± 4.10 | 91.4 ± 3.7 | 103.1 ± 2.5 | 299.8 ± 14.9 | 4.128 ± 0.189 | 0.599 ± 0.0349 | 1.989 ± 0.034 | 72.5 ± 1.98 | 88.9 ± 1.96 | 102.7 ± 1.098
2 | Cc1ncc(CO)c(CN)c1O [PM, pyridoxamine] | 420.0 ± 11.5 | 1.004 ± 0.032 | 0.722 ± 0.023 | 1.72 ± 0.03 | 77.6 ± 3.0 | 92.5 ± 2.7 | 106.0 ± 2.5 | 296.3 ± 16.4 | 4.305 ± 0.209 | 0.609 ± 0.029 | 2.07 ± 0.04 | 73.2 ± 2.1 | 89.9 ± 2.0 | 103.3 ± 2.0
